Like-named read-outs stand apart in the source and are kept apart here.
How the values were obtained:
[1] = tested on: Escherichia coli K-12 MG1655; test: Screening for tolerance in wild-type cells: growth in varying concentrations of neutralized diacid, Biolector; format: cell-based; details: for tlag (lag time), mean / μ (growth rate), mean: neutralized with sodium hydroxide
Method: Escherichia coli K-12 MG1655 was grown overnight in M9 minimal medium+1% glucose and subcultured the following morning to an initial OD600 of 0.05 in M9+1% glucose. Cells were grown to mid-exponential phase (OD600 0.7-1.0) and were back-diluted with fresh medium to an OD600 of 0.7. The diluted cells were used to inoculate M9+1% glucose containing varying concentrations of glutaric acid or adipic acid which were neutralized to pH 7.0 with sodium hydroxide, and growth was measured in FlowerPlates in a Biolector microbioreactor system (m2p-labs) at 37° C. with 1000 rpm shaking. The culture volume in each well was 1.4 mL.

[2] = tested on: Escherichia coli K-12 MG1655 and evolved isolates; format: cell-based; details: 38 g/L sebacic acid
Method: Five colonies from wild-type K-12 MG1655 and 10 individual colonies deriving from each population were inoculated into 300 μL M9+1% glucose in 96 well deepwell plates and incubated in a 300 rpm plate shaker at 37° C. The next day, cells were diluted 10× in M9+1% glucose and 30 μL was transferred into clear-bottomed 96 well half-deepwell plates (with rectangular wells) containing M9+1% glucose and M9+1% glucose+52.78 g/L glutaric acid or 55.56 g/L adipic acid, such that the final concentration of glutaric acid or adipic acid was 47.5 g/L or 50 g/L, respectively. In addition, cryogenic glycerol stocks of the overnight culture were saved in a 96 well plate format. Half deepwell plates were incubated at 37° C. with 225 rpm shaking in a Growth Profiler (Enzyscreen), with optical scans of the plates taken at 15 minute intervals. Green pixel values integrated over a 1 mm diameter circular area in each well were converted to OD600 values using a previously determined calibration between OD600 and green pixel values.
Additionally, each evolved isolate was tested for cross-tolerance toward other dicarboxylic acids of interest. […] All diacids tested were either the neutral sodium salts, or the free diacid was neutralized with sodium hydroxide to pH 7.0 for testing.

For `O=C(O)CCCCCCCCC(=O)O` [sebacic acid], the “tlag (lag time), mean” value ([1]; 10 g/L) was 1.9 h, the “μ (growth rate), mean” value ([1]; 10 g/L, M9+1% glucose, 37° C) was 0.707 h⁻¹ and the “tlag (lag time), mean” value ([1]; 20 g/L) was 2.7 h. The “μ (growth rate), mean” value ([1]; 20 g/L) was 0.578 h⁻¹, the “tlag (lag time), mean” value ([1]; 25 g/L) was 3.3 h and the “μ (growth rate), mean” value ([1]; 25 g/L) was 0.413 h⁻¹. For the same molecule, the “tlag (lag time), mean” value ([1]; 30 g/L) was 5.7 h, the “μ (growth rate), mean” value ([1]; 30 g/L) was 0.386 h⁻¹ and the “tlag (lag time), mean” value ([1]; 35 g/L) was 10.8 h. For the same molecule, the “μ (growth rate), mean” value ([1]; 35 g/L) was 0.306 h⁻¹, the “tlag (lag time), mean” value ([1]; 40 g/L) was 22.5 h and the “μ (growth rate), mean” value ([1]; 40 g/L) was 0.222 h⁻¹. The “tlag (lag time), mean” value ([1]; 45 g/L) was 50.6 h, the “μ (growth rate), mean” value ([1]; 45 g/L) was 0.051 h⁻¹ and the “growth of K-12 MG1655” value ([1]; above 40 g/L concentration) was “nearly no growth detected”. The “growth rate μ (mean)” value ([2]; strain ADIP1-1) was 0.244 h⁻¹, the “lag time tlag (mean)” value ([2]; strain ADIP1-1) was 21.6 h and the “growth rate μ (mean)” value ([2]; strain ADIP1-9) was 0.248 h⁻¹. For the same molecule, the “lag time tlag (mean)” value ([2]; strain ADIP1-9) was 17.8 h, the “growth rate μ (mean)” value ([2]; strain ADIP2-5) was 0.315 h⁻¹ and the “lag time tlag (mean)” value ([2]; strain ADIP2-5) was 13.5 h. For the same molecule, the “growth rate μ (mean)” value ([2]; strain ADIP2-6) was 0.319 h⁻¹, the “lag time tlag (mean)” value ([2]; strain ADIP2-6) was 12.9 h and the “growth rate μ (mean)” value ([2]; strain ADIP2-10) was 0.290 h⁻¹. The “lag time tlag (mean)” value ([2]; strain ADIP2-10) was 13.4 h, the “growth rate μ (mean)” value ([2]; strain ADIP3-2) was 0.254 h⁻¹ and the “lag time tlag (mean)” value ([2]; strain ADIP3-2) was 17.6 h. The “growth rate μ (mean)” value ([2]; strain ADIP3-4) was 0.262 h⁻¹, the “lag time tlag (mean)” value ([2]; strain ADIP3-4) was 17.1 h and the “growth rate μ (mean)” value ([2]; strain ADIP3-8) was 0.253 h⁻¹. The “lag time tlag (mean)” value ([2]; strain ADIP3-8) was 19.8 h, the “growth rate μ (mean)” value ([2]; strain ADIP4-1) was 0.308 h⁻¹ and the “lag time tlag (mean)” value ([2]; strain ADIP4-1) was 13.1 h. The “growth rate μ (mean)” value ([2]; strain ADIP4-8) was 0.289 h⁻¹, the “lag time tlag (mean)” value ([2]; strain ADIP4-8) was 12.8 h and the “growth rate μ (mean)” value ([2]; strain ADIP5-2) was 0.288 h⁻¹. For the same molecule, the “lag time tlag (mean)” value ([2]; strain ADIP5-2) was 15.3 h, the “growth rate μ (mean)” value ([2]; strain ADIP5-6) was 0.273 h⁻¹ and the “lag time tlag (mean)” value ([2]; strain ADIP5-6) was 20.7 h. For the same molecule, the “growth rate μ (mean)” value ([2]; strain ADIP6-3) was 0.268 h⁻¹, the “lag time tlag (mean)” value ([2]; strain ADIP6-3) was 17.9 h and the “growth rate μ (mean)” value ([2]; strain ADIP6-9) was 0.181 h⁻¹. The “lag time tlag (mean)” value ([2]; strain ADIP6-9) was 23.1 h, the “growth rate μ (mean)” value ([2]; strain ADIP6-10) was 0.267 h⁻¹ and the “lag time tlag (mean)” value ([2]; strain ADIP6-10) was 15.3 h. For the same molecule, the “growth rate μ (mean)” value ([2]; strain ADIP7-2) was 0.356 h⁻¹, the “lag time tlag (mean)” value ([2]; strain ADIP7-2) was 11.1 h and the “growth rate μ (mean)” value ([2]; strain ADIP7-5) was 0.353 h⁻¹. The “lag time tlag (mean)” value ([2]; strain ADIP7-5) was 12.0 h, the “growth rate μ (mean)” value ([2]; strain ADIP8-3) was 0.171 h⁻¹ and the “lag time tlag (mean)” value ([2]; strain ADIP8-3) was 28.9 h. The “growth rate μ (mean)” value ([2]; strain ADIP8-7) was 0.157 h⁻¹, the “lag time tlag (mean)” value ([2]; strain ADIP8-7) was 30.9 h and the “growth rate μ (mean)” value ([2]; strain ADIP8-10) was 0.165 h⁻¹. The “lag time tlag (mean)” value ([2]; strain ADIP8-10) was 30.0 h, the “growth rate μ (mean)” value ([2]; strain GLUT1-3) was 0.074 h⁻¹ and the “lag time tlag (mean)” value ([2]; strain GLUT1-3) was 34.9 h. For the same molecule, the “growth rate μ (mean)” value ([2]; strain GLUT1-9) was 0.043 h⁻¹, the “lag time tlag (mean)” value ([2]; strain GLUT1-9) was 44.7 h and the “growth rate μ (mean)” value ([2]; strain GLUT1-10) was 0.278 h⁻¹. The “lag time tlag (mean)” value ([2]; strain GLUT1-10) was 20.6 h, the “growth rate μ (mean)” value ([2]; strain GLUT2-1) was 0.153 h⁻¹ and the “lag time tlag (mean)” value ([2]; strain GLUT2-1) was 21.7 h. The “growth rate μ (mean)” value ([2]; strain GLUT2-9) was 0.282 h⁻¹, the “lag time tlag (mean)” value ([2]; strain GLUT2-9) was 12.5 h and the “growth rate μ (mean)” value ([2]; strain GLUT2-10) was 0.093 h⁻¹. The “lag time tlag (mean)” value ([2]; strain GLUT2-10) was 29.8 h, the “growth rate μ (mean)” value ([2]; strain GLUT3-5) was 0.106 h⁻¹ and the “lag time tlag (mean)” value ([2]; strain GLUT3-5) was 20.0 h. The “growth rate μ (mean)” value ([2]; strain GLUT3-7) was 0.068 h⁻¹, the “lag time tlag (mean)” value ([2]; strain GLUT3-7) was 6.4 h and the “growth rate μ (mean)” value ([2]; strain GLUT3-9) was 0.158 h⁻¹. The “lag time tlag (mean)” value ([2]; strain GLUT3-9) was 18.9 h, the “growth rate μ (mean)” value ([2]; strain GLUT4-1) was 0.266 h⁻¹ and the “lag time tlag (mean)” value ([2]; strain GLUT4-1) was 32.9 h. The “growth rate μ (mean)” value ([2]; strain GLUT4-4) was 0.265 h⁻¹, the “lag time tlag (mean)” value ([2]; strain GLUT4-4) was 34.2 h and the “growth rate μ (mean)” value ([2]; strain GLUT4-10) was 0.113 h⁻¹. For the same molecule, the “lag time tlag (mean)” value ([2]; strain GLUT4-10) was 20.1 h, the “growth rate μ (mean)” value ([2]; strain GLUT5-4) was 0.183 h⁻¹ and the “lag time tlag (mean)” value ([2]; strain GLUT5-4) was 37.7 h. For the same molecule, the “growth rate μ (mean)” value ([2]; strain GLUT5-5) was 0.117 h⁻¹, the “lag time tlag (mean)” value ([2]; strain GLUT5-5) was 54.9 h and the “growth rate μ (mean)” value ([2]; strain GLUT5-9) was 0.143 h⁻¹. For the same molecule, the “lag time tlag (mean)” value ([2]; strain GLUT5-9) was 58.2 h, the “growth rate μ (mean)” value ([2]; strain GLUT6-4) was 0.085 h⁻¹ and the “lag time tlag (mean)” value ([2]; strain GLUT6-4) was 26.4 h. For the same molecule, the “growth rate μ (mean)” value ([2]; strain GLUT6-5) was 0.123 h⁻¹, the “lag time tlag (mean)” value ([2]; strain GLUT6-5) was 21.6 h and the “growth rate μ (mean)” value ([2]; strain GLUT6-10) was 0.132 h⁻¹. For the same molecule, the “lag time tlag (mean)” value ([2]; strain GLUT6-10) was 26.2 h, the “growth rate μ (mean)” value ([2]; strain GLUT7-2) was 0.173 h⁻¹ and the “lag time tlag (mean)” value ([2]; strain GLUT7-2) was 17.5 h. The “growth rate μ (mean)” value ([2]; strain GLUT7-6) was 0.141 h⁻¹, the “lag time tlag (mean)” value ([2]; strain GLUT7-6) was 18.9 h and the “growth rate μ (mean)” value ([2]; strain GLUT7-7) was 0.112 h⁻¹. The “lag time tlag (mean)” value ([2]; strain GLUT7-7) was 20.0 h, the “growth rate μ (mean)” value ([2]; strain GLUT8-5) was 0.300 h⁻¹ and the “lag time tlag (mean)” value ([2]; strain GLUT8-5) was 21.4 h. The “growth rate μ (mean)” value ([2]; strain GLUT8-6) was 0.464 h⁻¹, the “lag time tlag (mean)” value ([2]; strain GLUT8-6) was 13.7 h and the “growth rate μ (mean)” value ([2]; strain GLUT8-9) was 0.471 h⁻¹. For the same molecule, the “lag time tlag (mean)” value ([2]; strain GLUT8-9) was 14.5 h, the “growth rate μ (mean)” value ([2]; strain MG1655 (Table 28)) was 0.167 h⁻¹ and the “lag time tlag (mean)” value ([2]; strain MG1655 (Table 28)) was 26.9 h. For the same molecule, the “growth rate μ (mean)” value ([2]; strain MG1655 (Table 29)) was 0.135 h⁻¹ and the “lag time tlag (mean)” value ([2]; strain MG1655 (Table 29)) was 28.2 h.

Source: US20230139445A1, “BACTERIAL CELLS WITH IMPROVED TOLERANCE TO DIACIDS” (priority 2016, published 2023)
